Values quoted from earlier work, collected in patent US20200046831A1, “NANOEMULSION COMPRISING IMIDAZOQUINOLINE-BASED MATERIAL AND USE THEREOF” (DANDI BIOSCIENCE INC., priority 2017, published 2020).

## CC(C)Cn1cnc2c(N)nc3ccccc3c21 [imiqimod (R837), imiquimod]
  solubility in organic solvents: not dissolved in most organic solvents except for DMSO
